Drawing on patent publication US11873298B2, “Compounds and uses thereof” (JANSSEN PHARMACEUTICA NV, priority 2017, dated 2024), this text covers IC50 for 48 compounds.

One assay has as its target T1, SCD1 (Homo sapiens, UniProt O00767).
T1 construct: host or cells: S. cerevisiae ole1Δ strain (W303 pdr1Δ pdr3Δ background), plasmid pRS316 with TDH3 promoter and CYC1 terminator
T1 sequence (O00767 1-359): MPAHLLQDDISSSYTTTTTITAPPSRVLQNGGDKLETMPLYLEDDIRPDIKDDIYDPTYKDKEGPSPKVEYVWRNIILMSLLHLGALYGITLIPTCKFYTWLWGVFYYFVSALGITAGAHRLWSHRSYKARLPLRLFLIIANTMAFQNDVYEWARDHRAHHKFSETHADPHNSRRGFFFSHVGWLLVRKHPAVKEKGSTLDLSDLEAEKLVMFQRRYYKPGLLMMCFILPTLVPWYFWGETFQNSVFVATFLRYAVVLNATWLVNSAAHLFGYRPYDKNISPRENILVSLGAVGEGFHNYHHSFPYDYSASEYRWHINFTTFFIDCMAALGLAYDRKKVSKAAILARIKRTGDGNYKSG
Put plainly: Growth inhibition of humanized yeast strain expressing SCD1 as sole desaturase. The assay is classed as cell-based. An outline of the steps:
(§1)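 Yeast ole1Δ strain (W303 pdr1Δ pdr3Δ background) carrying plasmid-borne Ole1, SCD1 or SCD5 as sole desaturase was grown in uracil-lacking media, pre-cultured in raffinose for 6 h, then seeded in galactose medium with compound in DMSO. Growth was read as OD600 after 30° C. incubation: 24 h for Ole1, 40 h for SCD1/SCD5.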

For the next assay, the target named is T2, SCD5 (Homo sapiens, UniProt Q86SK9).
T2 construct: host or cells: S. cerevisiae ole1Δ strain (W303 pdr1Δ pdr3Δ background), plasmid pRS316 with TDH3 promoter and CYC1 terminator
T2 sequence (Q86SK9 1-330): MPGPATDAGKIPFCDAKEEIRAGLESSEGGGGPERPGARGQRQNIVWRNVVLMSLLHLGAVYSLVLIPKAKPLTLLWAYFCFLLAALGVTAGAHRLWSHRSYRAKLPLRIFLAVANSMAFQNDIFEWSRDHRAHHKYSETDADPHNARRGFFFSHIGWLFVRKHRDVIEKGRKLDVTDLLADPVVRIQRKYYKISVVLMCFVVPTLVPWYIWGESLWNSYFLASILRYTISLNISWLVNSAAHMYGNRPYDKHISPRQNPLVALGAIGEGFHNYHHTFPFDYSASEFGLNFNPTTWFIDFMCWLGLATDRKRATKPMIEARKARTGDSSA
Briefly: Growth inhibition of humanized yeast strain expressing SCD5 as sole desaturase. Type of assay: cell-based. An outline of the steps: as §1

[1] abbreviates: humanized yeast strain expressing SCD1.
The mark [2] stands for this setting: humanized yeast strain expressing SCD5.
The mark [3] stands for this setting: growth inhibition of humanized yeast strain expressing human SCD1.
The mark [4] stands for this setting: growth inhibition of humanized yeast strain expressing human SCD5.

Bounds are passed on as bounds.

Turning to `CC(C)(C)OC(=O)N1CCC(c2noc(-c3cccc(N4CCOCC4)c3)n2)CC1` [Compound 979], the IC50 at SCD1 (humanized yeast strain, 40 h) is over 45 µM; against SCD5 (humanized yeast strain, 40 h), 0.168 µM.
The like results for `COC(=O)N1CC[C@@H](c2noc(-c3ccc4cnn(C5COC5)c4c3)n2)C[C@@H]1C` [Compound 1054] were, in that order, over 45 µM and 0.01 µM.
Take `CC(C)n1ncc2ccc(-c3nnc(C4CCN(C(=O)OC(C)(C)C)CC4)o3)cc21` [Compound 849]: the IC50 was over 45 µM against SCD1 (humanized yeast strain, 40 h) and 0.644 µM on SCD5 (humanized yeast strain, 40 h).
The corresponding values for `O=C(C1CC1)N1CCC(c2nc(-c3ccnc(F)c3)no2)CC1` [Compound 1128] are over 45 µM and over 45 µM.
The corresponding values for `CC(C)(C)OC(=O)N1CCC(c2cc(-c3ccc4cnn(C5COC5)c4c3)on2)CC1` [Compound 1026] are 3.98 µM and 0.2 µM.
For the compound `CC(C)n1ncc2ccc(-c3nc(N4CCN(C(=O)c5ccccc5Cl)CC4)no3)cc21` [Compound 580], the IC50 on SCD1 (setting [1]) is 14.1 µM; on SCD5 (setting [2]) it was 0.022 µM.
As to `COC(=O)N1CCN(c2nc(-c3ccc4cnn(C5COC5)c4c3)no2)CC1` [Compound 636], the IC50 was over 45 µM against SCD1 (setting [3]) and 1.8 µM against SCD5 (setting [4]).
In the case of `COC(=O)N1CCC(c2noc(-c3ccc4cnn(C5CCC(F)(F)C5)c4c3)n2)CC1` (stereo not drawn) [Compound 1078], the IC50 against SCD1 (humanized yeast strain, 40 h) is over 45 µM; on SCD5 (humanized yeast strain, 40 h), 0.033 µM.
The corresponding values for `CC(C)n1cc2c(n1)CN(c1noc(C3CCN(C(=O)OC(C)(C)C)CC3)n1)CC2` [Compound 868] are over 45 µM and 0.967 µM.
The corresponding values for `CC(C)(C)OC(=O)N1CCC(c2noc(-c3cccc(C4CCCO4)c3)n2)CC1` (stereo not drawn) [Compound 812] are over 45 µM and 0.01 µM.
The like results for `O=C(C1CCC1)N1CCN(c2noc(-c3ccc4cnn(C5COC5)c4c3)n2)CC(F)(F)C1` [Compound 1046] were, in that order, at least 45 µM and 0.01 µM.
`COC(=O)N1CCC(c2nc(-c3ccc4cnn(C5CCOC5)c4c3)no2)CC1` (stereo not drawn) [Compound 776]: the IC50 against SCD1 (humanized yeast strain, 40 h) is over 45 µM; against SCD5 (humanized yeast strain, 40 h), 0.025 µM.
On to `CC(C)(C)OC(=O)N1CCC(c2ccc(-c3ccc4cnn(C5COC5)c4c3)cc2)CC1` [Compound 967], for which the IC50 against SCD1 (humanized yeast strain, 40 h) was over 45 µM; at SCD5 (humanized yeast strain, 40 h), 1.52 µM.
The like results for `c1cc2cnn(C3COC3)c2cc1-c1nc(N2CCNCC2)no1` [Compound 751] were, in that order, over 45 µM and over 45 µM.
On to `CC(C)(C)OC(=O)N1CCC(c2nc(-c3ccc4cnn(C5CS(=O)(=O)C5)c4c3)no2)CC1` [Compound 690], for which the values for the IC50 against SCD1 (setting [3]) and on SCD5 (setting [4]) were over 45 µM and 0.131 µM, respectively.
As to `Cc1nn(C)c2cc(-c3noc([C@H]4CCN(C(=O)CNC(=O)c5ccccc5)CC4(F)F)n3)ccc12` [Compound 578], the IC50 came out at 8.46 µM against SCD1 (setting [1]) and 1.49 µM against SCD5 (setting [2]).
`COC(=O)N1CCC(c2nc(-c3ccc4c(c3)N(C(C)C)C(=O)C4)no2)CC1` [Compound 627]: the IC50 at SCD1 (setting [3]) was over 45 µM; against SCD5 (setting [4]), 6.69 µM.
As to `O=C(N1CCC(c2noc(-c3ccnc(NC4COC4)c3)n2)CC1)C1(F)CC1` [Compound 1116], the IC50 on SCD1 (humanized yeast strain, 40 h) was over 45 µM; on SCD5 (humanized yeast strain, 40 h), 1.41 µM.
In the case of `CC(C)(C)OC(=O)N1CCC(c2nc(-c3ccc4cnn(CC5COC5)c4c3)no2)CC1` [Compound 661], the IC50 against SCD1 (setting [3]) is over 45 µM; on SCD5 (setting [4]), 1.54 µM.
Take `COC(=O)N1CCN(c2noc(-c3ccc4cnn(C5CN(C)C5)c4c3)n2)CC1` [Compound 960]: the half-inhibitory concentration (IC50) against SCD1 (humanized yeast strain, 40 h) turned out to be 20.4 µM; at SCD5 (humanized yeast strain, 40 h), 0.01 µM.
The corresponding values for `O=C(OC1CC1)N1CCC(c2noc(-c3cnc4cnn(C5COC5)c4c3)n2)CC1` [Compound 1139] are over 45 µM and 0.096 µM.
The corresponding values for `O=C(C1CC2(CC2)C1)N1CCN(c2noc(-c3ccc4cnn(C5COC5)c4c3)n2)CC1` [Compound 864] are over 45 µM and over 45 µM.
With `CC(C)(C)OC(=O)N1CCC(c2nc(-c3ccc4cn(C5CCOC5)nc4c3)no2)CC1` (stereo not drawn) [Compound 655], the IC50 against SCD1 (setting [3]) and at SCD5 (setting [4]) was over 45 µM in each case.
For `CC(C)(C)OC(=O)N1CCC(c2nc(-c3ccc4cn[nH]c4c3)no2)CC1` [Compound 912], the IC50 at SCD1 (humanized yeast strain, 40 h) is over 45 µM; against SCD5 (humanized yeast strain, 40 h), 1.98 µM.
`CC(C)(C)OC(=O)N1CCC(c2noc(-c3cc(F)c4cnn(C5CCOC5)c4c3)n2)CC1` (stereo not drawn) [Compound 1075]: the IC50 against SCD1 (humanized yeast strain, 40 h) was found to be 4.4 µM; against SCD5 (humanized yeast strain, 40 h), 0.01 µM.
Consider `CC(C)(C)OC(=O)N1CCC(c2nc(-c3ccc4cnn([C@H]5C[C@](C)(O)C5)c4c3)no2)CC1` [Compound 821], for which the IC50 against SCD1 (humanized yeast strain, 40 h) was over 45 µM; against SCD5 (humanized yeast strain, 40 h), 5.06 µM.
The like results for `O=C(c1ccccc1F)N1CCC(c2noc(-c3ccnc(NC4COC4)c3)n2)CC1` [Compound 1157] were, in that order, over 45 µM and over 45 µM.
As to `CC(C)n1ncc2ccc(-c3noc([C@H]4CC[C@@H](O)CC4)n3)cc21` [Compound 654], the IC50 on SCD1 (setting [3]) and at SCD5 (setting [4]) was over 45 µM in each case.
As for `CC(C)(C)OC(=O)N1CCC(c2noc(-c3ccc4oc(=O)[nH]c4c3)n2)CC1` [Compound 1009], the IC50 against SCD1 (humanized yeast strain, 40 h) is over 45 µM; against SCD5 (humanized yeast strain, 40 h), 9.51 µM.
For the compound `COC(=O)N1CCN(c2noc(-c3ccnc(OC4COC4)c3)n2)CC1` [Compound 1002], the IC50 against SCD1 (humanized yeast strain, 40 h) was over 45 µM; against SCD5 (humanized yeast strain, 40 h), 5.05 µM.
The corresponding values for `COC(=O)N1CCC(c2nc(-c3ccc4cnn([C@H]5CCOC5)c4c3)no2)CC1` [Compound 906] are over 45 µM and 0.89 µM.
The like results for `O=S(=O)(C1CCC1)N1CCC(c2noc(-c3ccc4cnn(C5COC5)c4c3)n2)CC1` [Compound 969] were, in that order, over 45 µM and 1.42 µM.
As to `CC(C)n1ncc2ccc(-c3noc(C4CCN(C(=O)CNC(=O)c5ccc(F)cc5)CC4(F)F)n3)cc21` (stereo not drawn) [Compound 681], the IC50 on SCD1 (setting [3]) and on SCD5 (setting [4]) was over 45 µM throughout.
On to `CC(C)(C)OC(=O)N1CCC(c2nc(-c3ccc4cnn(C5COC5)c4c3)ns2)CC1` [Compound 621], for which the IC50 against SCD1 (setting [3]) is over 45 µM; at SCD5 (setting [4]), 0.042 µM.
`CC(C)n1ncc2ccc(-c3noc(N4CCN(C(=O)CC5CC5)CC4)n3)cc21` [Compound 869]: the IC50 against SCD1 (humanized yeast strain, 40 h) was over 45 µM; on SCD5 (humanized yeast strain, 40 h), 1.64 µM.
The like results for `CCC(=O)N1CCC(c2noc(-c3ccc(N4CCOCC4)cc3)n2)CC1` [Compound 1166] were, in that order, over 45 µM and over 45 µM.
The corresponding values for `CC(C)(C)OC(=O)N1CCN(c2nc(-c3ccc4cnn(C5CCOC5)c4c3)no2)CC1` (stereo not drawn) [Compound 784] are 0.95 µM and 0.01 µM.
The corresponding values for `CC(C)(C)OC(=O)N1CCC(c2nc(-c3ccnc(Cl)c3)no2)CC1` [Compound 747] are over 45 µM and 26.8 µM.
`CC(C)C(=O)N1CCC(c2noc(-c3cnc4cnn(C5COC5)c4c3)n2)CC1` [Compound 1138]: the IC50 was over 45 µM on SCD1 (humanized yeast strain, 40 h) and 0.761 µM at SCD5 (humanized yeast strain, 40 h).
On to `CC(C)(C)OC(=O)N1CCN(c2nc(-c3ccc4cnn(C5CCC5)c4c3)no2)CC1` [Compound 721], for which the IC50 against SCD1 (setting [3]) was over 45 µM; against SCD5 (setting [4]), 1.65 µM.
With `CC(C)(C)OC(=O)N1CCC(c2nc(N3CC4(COC4)C3)no2)CC1` [Compound 806], the IC50 at SCD1 (humanized yeast strain, 40 h) is over 45 µM; against SCD5 (humanized yeast strain, 40 h) it was over 45 µM.
Consider `CC(C)(C)OC(=O)N1CCC(c2nnc(-c3ccc4cnn(C5COC5)c4c3)o2)CC1` [Compound 851], for which the IC50 against SCD1 (humanized yeast strain, 40 h) was over 45 µM; against SCD5 (humanized yeast strain, 40 h), 0.065 µM.
The like results for `COC(=O)N1CCC(c2noc(-c3ccc4cnc(C5COC5)n4c3)n2)CC1` [Compound 917] were, in that order, over 45 µM and 0.1 µM.
The like results for `CC(C)C(=O)N1CCC(c2noc(-c3ccnc(-c4ccn(C)n4)c3)n2)CC1` [Compound 1184] were, in that order, over 45 µM and over 45 µM.
Consider `CC(C)n1ncc2ccc(-c3noc(C4CCN(S(=O)(=O)C5CCCCC5)CC4)n3)cc21` [Compound 516], for which the IC50 on SCD1 (setting [1]) and at SCD5 (setting [2]) was over 45 µM each time.
Consider `CC(C)(C)OC(=O)N1CCC(c2noc(-c3ccccc3N3CCOCC3)n2)CC1` [Compound 1145], for which the IC50 on SCD1 (humanized yeast strain, 40 h) is over 45 µM; against SCD5 (humanized yeast strain, 40 h) it was 11.1 µM.
Turning to `CC(C)n1ncc2ccc(-c3nc(C4CCN(C(=O)CC(C)(C)C)C4)no3)cc21` (stereo not drawn) [Compound 542], the IC50 was over 45 µM on SCD1 (setting [1]) and 7.33 µM on SCD5 (setting [2]).
Turning to `CC(C)(C)OC(=O)N1CCC(c2nc(-c3cccc(C4CCOC4)c3)no2)CC1` (stereo not drawn) [Compound 658], the figures for the 50% inhibitory concentration (IC50) against SCD1 (setting [3]) and on SCD5 (setting [4]) were over 45 µM and 0.089 µM, respectively.

Usually IC50 stands for the point on the concentration scale where inhibition reaches its midpoint. Higher therefore signals weaker potency.
